Laboratory results as given in ChEMBL document CHEMBL1146569, “The pterocellins, novel bioactive alkaloids from the marine bryozoan Pterocella vesiculosa” (J Nat Prod, 2003).

Experiments:
Type in all cases: functional
IGROV-1 = test: Growth inhibition of human IGROV1 cells; details: for CC50: read-out: LC50 (the source's name)
MDA-MB-435 = test: Growth inhibition of human MDA-MB-435 cells; details: for CC50: read-out: LC50 (the source's name)
Candida albicans = test: Antimicrobial activity against Candida albicans assessed per disk
SW-620 = test: Growth inhibition of human SW620 cells
NCI-H226 = test: Growth inhibition of human NCI-H226 cells; details: for CC50: read-out: LC50 (the source's name)
K562 = test: Growth inhibition of human K562 cells
786-0 = test: Growth inhibition of human 786-0 cells
MOLT-4 = test: Growth inhibition of human MOLT4 cells
SF-295 = test: Growth inhibition of human SF295 cells
NCI-H23 = test: Growth inhibition of human NCI-H23 cells
DU-145 = test: Growth inhibition of human DU145 cells; details: for CC50: read-out: LC50 (the source's name)
UO-31 = test: Growth inhibition of human UO31 cells; details: for CC50: read-out: LC50 (the source's name)
RXF 393 = test: Growth inhibition of human RXF393 cells
MDA-MB-231 = test: Growth inhibition of human MDA-MB-231 cells; details: for CC50: read-out: LC50 (the source's name)
M14 = test: Growth inhibition of human M14 cells
HCT-15 = test: Growth inhibition of human HCT15 cells; details: for CC50: read-out: LC50 (the source's name)
MCF7 = test: Growth inhibition of human MCF7 cells; details: for CC50: read-out: LC50 (the source's name)
TK-10 = test: Growth inhibition of human TK10 cells; details: for CC50: read-out: LC50 (the source's name)
SN12C = test: Growth inhibition of human SN12C cells
BT-549 = test: Growth inhibition of human BT549 cells; details: for CC50: read-out: LC50 (the source's name)
U-251 = test: Growth inhibition of human U251 cells; details: for CC50: read-out: LC50 (the source's name)

Molecule `COc1cn2c(cc1=O)C(=O)c1ccnc(CC(C)C)c1-2` [PTEROCELLIN A] has a GI50 (IGROV-1) of 2.1 µM, a TGI (IGROV-1) of 5.4 µM and a CC50 (IGROV-1) of 18.4 µM. It also gave a GI50 (MDA-MB-435) of 0.2 µM, a TGI (MDA-MB-435) of 0.3 µM and a CC50 (MDA-MB-435) of 0.6 µM. For the same molecule, the MIC (Candida albicans) was >60 µg, the GI50 (SW-620) was 1.5 µM and the LC50 (concentration killing 50% of cells) (SW-620) was 6.2 µM. It also gave a TGI (SW-620) of 3.1 µM, a GI50 (NCI-H226) of 1.7 µM and a TGI (NCI-H226) of 3.5 µM. The CC50 (NCI-H226) was 7.4 µM, the GI50 (K562) was 3 µM and the LC50 (concentration killing 50% of cells) (K562) was > 100 µM. For the same molecule, the TGI (K562) was > 100 µM, the GI50 (786-0) was 1.3 µM and the LC50 (concentration killing 50% of cells) (786-0) was 24.4 µM. The TGI (786-0) was 4.7 µM, the GI50 (MOLT-4) was 3.5 µM and the LC50 (concentration killing 50% of cells) (MOLT-4) was > 100 µM. The TGI (MOLT-4) was > 100 µM, the GI50 (SF-295) was 1.3 µM and the LC50 (concentration killing 50% of starting cells) (SF-295) was 5.2 µM. It also gave a TGI (SF-295) of 2.6 µM, a GI50 (NCI-H23) of 0.3 µM and an LC50 (concentration causing 50% net cell kill) (NCI-H23) of 6.1 µM. For the same molecule, the TGI (NCI-H23) was 1 µM, the GI50 (DU-145) was 0.7 µM and the TGI (DU-145) was 2 µM. The CC50 (DU-145) was 4.7 µM, the GI50 (UO-31) was 2.2 µM and the TGI (UO-31) was 6.1 µM. For the same molecule, the CC50 (UO-31) was 22.2 µM, the GI50 (RXF 393) was 3.2 µM and the LC50 (RXF 393) was 46.6 µM. The TGI (RXF 393) was 12.3 µM, the GI50 (MDA-MB-231) was 2.6 µM and the TGI (MDA-MB-231) was 14.1 µM. For the same molecule, the CC50 (MDA-MB-231) was 51.7 µM, the GI50 (M14) was 0.2 µM and the LC50 (concentration killing 50% of cells) (M14) was 4.6 µM. The TGI (M14) was 0.8 µM, the GI50 (HCT-15) was 1.6 µM and the TGI (HCT-15) was 4.2 µM. The CC50 (HCT-15) was 17.3 µM, the GI50 (MCF7) was 1.5 µM and the TGI (MCF7) was 4.9 µM. The CC50 (MCF7) was > 100 µM, the GI50 (TK-10) was 3.1 µM and the TGI (TK-10) was 6.8 µM. For the same molecule, the CC50 (TK-10) was 23.1 µM, the GI50 (SN12C) was 1.7 µM and the LC50 (SN12C) was 6.5 µM. The TGI (SN12C) was 3.3 µM, the GI50 (BT-549) was 1.7 µM and the TGI (BT-549) was 4 µM. It also gave a CC50 (BT-549) of 9.3 µM, a GI50 (U-251) of 2.2 µM and a TGI (U-251) of 7.5 µM. The CC50 (U-251) was 42.5 µM.
With `COc1cn2c(cc1=O)C(=O)c1ccnc(Cc3ccccc3)c1-2` [PTEROCELLIN B] the GI50 (IGROV-1) was 1 µM, the TGI (IGROV-1) was 2.5 µM and the CC50 (IGROV-1) was 6 µM. For the same molecule, the GI50 (MDA-MB-435) was 0.2 µM, the TGI (MDA-MB-435) was 0.3 µM and the CC50 (MDA-MB-435) was 0.6 µM. The MIC (Candida albicans) was >60 µg, the GI50 (SW-620) was 0.7 µM and the LC50 (concentration killing 50% of cells) (SW-620) was 4.9 µM. It also gave a TGI (SW-620) of 2 µM, a GI50 (NCI-H226) of 1.4 µM and a TGI (NCI-H226) of 3.5 µM. For the same molecule, the CC50 (NCI-H226) was 8.4 µM, the GI50 (K562) was 1.2 µM and the LC50 (concentration killing 50% of cells) (K562) was 4.9 µM. It also gave a TGI (K562) of 2.4 µM, a GI50 (786-0) of 1.8 µM and an LC50 (concentration killing 50% of cells) (786-0) of 17.9 µM. It also gave a TGI (786-0) of 5 µM, a GI50 (MOLT-4) of 1.4 µM and an LC50 (concentration killing 50% of cells) (MOLT-4) of 5.6 µM. It also gave a TGI (MOLT-4) of 2.9 µM, a GI50 (SF-295) of 0.3 µM and an LC50 (concentration killing 50% of starting cells) (SF-295) of 4 µM. For the same molecule, the TGI (SF-295) was 1.6 µM, the GI50 (NCI-H23) was 0.1 µM and the LC50 (concentration causing 50% net cell kill) (NCI-H23) was 0.7 µM. The TGI (NCI-H23) was 0.3 µM, the GI50 (DU-145) was 0.2 µM and the TGI (DU-145) was 0.3 µM. The CC50 (DU-145) was 0.6 µM, the GI50 (UO-31) was 1.3 µM and the TGI (UO-31) was 2.8 µM. For the same molecule, the CC50 (UO-31) was 5.7 µM, the GI50 (RXF 393) was 2.4 µM and the LC50 (RXF 393) was 45.2 µM. For the same molecule, the TGI (RXF 393) was 6.9 µM, the GI50 (MDA-MB-231) was 3.3 µM and the TGI (MDA-MB-231) was 29.6 µM. The CC50 (MDA-MB-231) was > 100 µM, the GI50 (M14) was 0.1 µM and the LC50 (concentration killing 50% of cells) (M14) was 0.5 µM. The TGI (M14) was 0.2 µM, the GI50 (HCT-15) was 0.5 µM and the TGI (HCT-15) was 1.8 µM. For the same molecule, the CC50 (HCT-15) was 4.9 µM, the GI50 (MCF7) was 1 µM and the TGI (MCF7) was 3.3 µM. The CC50 (MCF7) was > 100 µM, the GI50 (TK-10) was 1.5 µM and the TGI (TK-10) was 2.9 µM. It also gave a CC50 (TK-10) of 5.6 µM, a GI50 (SN12C) of 0.5 µM and an LC50 (SN12C) of 5.5 µM. It also gave a TGI (SN12C) of 1.8 µM, a GI50 (BT-549) of 1.5 µM and a TGI (BT-549) of 2.9 µM. It also gave a CC50 (BT-549) of 5.6 µM, a GI50 (U-251) of 1 µM and a TGI (U-251) of 2.2 µM. The CC50 (U-251) was 4.7 µM.
